Source: patent US20100056508A1, “AMINE DERIVATIVES AND THEIR USE IN BETA-2-ADRENORECEPTOR MEDIATED DISEASES” (ASTRAZENECA AB, priority 2006, published 2010)
Counter-ions that a name gives are not always drawn.

What was measured:
[1] = molecular target: T1, recombinant human adrenergic beta 1 receptors (Homo sapiens, UniProt P08588); experiment: Adrenergic β1 selectivity assay, [125I]-Iodocyanopindolol binding to membranes; conditions: inhibition of [125I]-Iodocyanopindolol binding, read-out: β1 bind pIC50 (converted)
T1 construct: purchased Euroscreen
T1 sequence (P08588 whole entry): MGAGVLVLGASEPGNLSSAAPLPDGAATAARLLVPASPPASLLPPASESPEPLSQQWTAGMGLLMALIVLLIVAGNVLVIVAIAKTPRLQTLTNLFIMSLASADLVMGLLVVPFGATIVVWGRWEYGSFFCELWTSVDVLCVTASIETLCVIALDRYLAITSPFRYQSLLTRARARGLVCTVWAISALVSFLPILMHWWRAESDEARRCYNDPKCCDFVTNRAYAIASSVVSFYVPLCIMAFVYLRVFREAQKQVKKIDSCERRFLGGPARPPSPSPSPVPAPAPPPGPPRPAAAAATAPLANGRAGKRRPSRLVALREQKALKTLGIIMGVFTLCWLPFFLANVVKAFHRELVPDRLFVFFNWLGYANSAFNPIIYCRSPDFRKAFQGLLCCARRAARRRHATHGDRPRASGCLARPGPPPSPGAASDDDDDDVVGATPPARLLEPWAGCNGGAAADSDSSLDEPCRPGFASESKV
Experimental: Membranes containing recombinant human adrenergic beta 1 receptors were obtained from Euroscreen. These were diluted in Assay Buffer (50 mM HEPES, 1 mM EDTA, 120 mM NaCl, 0.1% gelatin, pH 7.4) to provide a final concentration of membranes that gave a clear window between maximum and minimum specific binding.
Assays were performed in U-bottomed 96-well polypropylene plates. 10 μL [^125I]-Iodocyanopindolol (0.036 nM final concentration) and 10 μL of test compound (10× final concentration) were added to each test well. For each assay plate 8 replicates were obtained for [^125I]-Iodocyanopindolol binding in the presence of 10 μL vehicle (10% (v/v) DMSO in Assay Buffer; defining maximum binding) or 10 μL Propranolol (10 μM final concentration; defining non-specific binding (NSB)). Membranes were then added to achieve a final volume of 100 μL. The plates were incubated for 2 hours at room temperature and then filtered onto PEI coated GF/B filter plates, pre-soaked for 1 hour in Assay Buffer, using a 96-well plate Tomtec cell harvester. Five washes with 250 μL wash buffer (50 mM HEPES, 1 mM EDTA, 120 mM NaCl, pH 7.4) were performed at 4° C. to remove unbound radioactivity. The plates were dried then sealed from underneath using Packard plate sealers and MicroScint-O (50 μL) was added to each well. The plates were sealed (TopSeal A) and filter-bound radioactivity was measured with a scintillation counter (TopCount, Packard BioScience) using a 3-minute counting protocol.
Total specific binding (B0) was determined by subtracting the mean NSB from the mean maximum binding. NSB values were also subtracted from values from all other wells. […] Data was fitted to a four parameter logistic equation to determine the compound potency, which was expressed as pIC50 (negative log molar concentration inducing 50% inhibition of [^125I]-Iodocyanopindolol binding).

[2] = molecular target: T2, Adrenergic β2 (Homo sapiens, UniProt P07550); experiment: Adrenergic β2 mediated cAMP production in H292 cells (AlphaScreen cAMP detection); format: cell-based; set-up: key to β2 Int Act: fraction of formoterol maximum activity (formoterol = 1); conditions: for β2 Int Act: Intrinsic Activity as a fraction relative to the maximum activity determined for formoterol; for EC50: cAMP production, 60 minutes at room temperature, 300 μM rolipram, read-out: β2 pEC50 (converted)
T2 construct: Adherent H292 cells were removed from tissue culture flasks; endogenous in cells; host or cells: H292 cells
T2 sequence (P07550 whole entry): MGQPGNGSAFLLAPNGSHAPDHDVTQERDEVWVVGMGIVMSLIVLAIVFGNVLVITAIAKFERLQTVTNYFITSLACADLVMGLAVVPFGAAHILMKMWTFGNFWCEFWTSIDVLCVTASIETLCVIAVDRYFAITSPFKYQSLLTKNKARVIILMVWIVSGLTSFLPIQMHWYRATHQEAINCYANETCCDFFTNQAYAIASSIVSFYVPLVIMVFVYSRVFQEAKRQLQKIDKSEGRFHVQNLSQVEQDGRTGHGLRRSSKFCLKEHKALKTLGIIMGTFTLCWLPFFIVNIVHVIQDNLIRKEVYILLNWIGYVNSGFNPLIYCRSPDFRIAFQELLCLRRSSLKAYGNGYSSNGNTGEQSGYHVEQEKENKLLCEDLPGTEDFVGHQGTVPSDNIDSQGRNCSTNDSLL
Summary of the method: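 H292 cells pre-treated 10 min with rolipram (300 μM final), then given agonist for 60 min at room temperature in HBSS/10 mM HEPES pH 7.4, 1.6% DMSO final. Lysate cAMP measured by AlphaScreen against a cAMP standard curve. Four-parameter fit gives pEC50; intrinsic activity relative to formoterol maximum.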

[3] = molecular target: T3, recombinant human Dopamine Subtype D2s receptors (Homo sapiens, UniProt P14416); experiment: Dopamine D2 selectivity assay, [3H]-spiperone binding to membranes; conditions: inhibition of [3H]-spiperone binding, read-out: D2 bind pIC50 (converted)
T3 construct: purchased Perkin Elmer
T3 sequence (P14416 1-414 isoform P14416-2): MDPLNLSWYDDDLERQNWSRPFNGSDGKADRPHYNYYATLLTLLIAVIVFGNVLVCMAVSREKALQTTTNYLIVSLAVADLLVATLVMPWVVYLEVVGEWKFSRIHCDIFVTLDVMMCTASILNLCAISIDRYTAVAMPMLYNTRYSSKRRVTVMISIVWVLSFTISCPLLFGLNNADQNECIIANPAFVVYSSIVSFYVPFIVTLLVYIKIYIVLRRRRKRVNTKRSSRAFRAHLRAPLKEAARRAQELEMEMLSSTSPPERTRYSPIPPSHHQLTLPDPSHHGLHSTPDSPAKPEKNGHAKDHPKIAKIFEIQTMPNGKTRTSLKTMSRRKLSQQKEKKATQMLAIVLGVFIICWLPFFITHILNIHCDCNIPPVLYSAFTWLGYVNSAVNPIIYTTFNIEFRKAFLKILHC
Summary of the method: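 Human D2s receptor membranes incubated 2 h at room temperature with 0.16 nM [3H]-spiperone and test compound in HEPES buffer pH 7.4 (120 mM NaCl, 0.1% gelatin). Non-specific binding defined with 10 μM haloperidol; filter-bound radioactivity counted, pIC50 from four-parameter logistic fit.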

| SMILES | IC50 [1] | β2 Int Act [2] | EC50 [2] | IC50 [3] |
| --- | --- | --- | --- | --- |
| CCCC[C@@H](C)N(CCNCCc1ccc(O)c2c1OCC(=O)N2)C(=O)CCNCCc1ccccc1 [Example 25, (R)—N-(Hexan-2-yl)-N-(2-(2-(5-hydroxy-3-oxo-3,4-dihydro-2H-benzo[b][1,4]oxazin-8-yl)ethylamino)ethyl)-3-(phenethylamino)propanamide bis(trifluoroacetate)] | 2510 nM | 0.9 | 1 nM | 100 nM |
| O=C1COc2c(CCNCCN(C(=O)CCNCCc3ccc(Cl)cc3)C3CCCCC3)ccc(O)c2N1 [Example 32, 3-(4-Chlorophenethylamino)-N-cyclohexyl-N-(2-(2-(5-hydroxy-3-oxo-3,4-dihydro-2H-benzo[b][1,4]oxazin-8-yl)ethylamino)ethyl)propanamide bis(trifluoroacetate)] | 2000 nM | 1.03 | 3.16 nM | 200 nM |
| CCCC[C@@H](C)N(CCNCCc1ccc(O)c2c1OCC(=O)N2)C(=O)CCNCCc1cc(F)ccc1C [Example 57, (R)-3-(5-Fluoro-2-methylphenethylamino)-N-(hexan-2-yl)-N-(2-(2-(5-hydroxy-3-oxo-3,4-dihydro-2H-benzo[b][1,4]oxazin-8-yl)ethylamino)ethyl)propanamide bis(trifluoroacetate)] | 1580 nM | 0.91 | 7.94 nM | 15.8 nM |
| O=C1COc2c(CCNCCN(C(=O)CCNCCc3ccccc3)C3CCCCC3)ccc(O)c2N1 [Example 23, N-Cyclohexyl-N-(2-(2-(5-hydroxy-3-oxo-3,4-dihydro-2H-benzo[b][1,4]oxazin-8-yl)ethylamino)ethyl)-3-(phenethylamino)propanamide bis(trifluoroacetate)] | 631 nM | 0.79 | 0.631 nM | 316 nM |
| CCOc1cccc(CCNCCC(=O)N(CCNCCc2ccc(O)c3[nH]c(=O)ccc23)C2CCCCCC2)c1 [Example 11, N-Cycloheptyl-3-(3-ethoxyphenethylamino)-N-(2-(2-(8-hydroxy-2-oxo-1,2-dihydroquinolin-5-yl)ethylamino)ethyl)propanamide bis(trifluoroacetate)] | > 10000 nM | 0.65 | 79.4 nM | 501 nM |
| O=C(CCNCCc1ccc(Cl)cc1)N(CCNCCc1ccc(O)c2[nH]c(=O)ccc12)C1CCCCC1 [Example 14, 3-(4-Chlorophenethylamino)-N-cyclohexyl-N-(2-(2-(8-hydroxy-2-oxo-1,2-dihydroquinolin-5-yl)ethylamino)ethyl)propanamide bis(trifluoroacetate)] | > 10000 nM | 0.88 | 20 nM | 251 nM |
| O=C(CCNCCc1cccc(Cl)c1)N(CCNCCc1ccc(O)c2[nH]c(=O)ccc12)C1CCCCCC1 [Example 3, 3-(3-Chlorophenethylamino)-N-cycloheptyl-N-(2-(2-(8-hydroxy-2-oxo-1,2-dihydroquinolin-5-yl)ethylamino)ethyl)propanamide bis(trifluoroacetate)] | 1260 nM | 0.82 | 7.94 nM | 200 nM |
| O=C1COc2c(CCNCCN(C(=O)CCNCCc3ccc(Cl)cc3Cl)C3CCCCC3)ccc(O)c2N1 [Example 31, N-Cyclohexyl-3-(2,4-dichlorophenethylamino)-N-(2-(2-(5-hydroxy-3-oxo-3,4-dihydro-2H-benzo[b][1,4]oxazin-8-yl)ethylamino)ethyl)propanamide bis(trifluoroacetate)] | 3160 nM | 0.94 | 6.31 nM | 100 nM |

Other lines, results leading:

| IC50 [1] | β2 Int Act [2] | EC50 [2] | IC50 [3] | SMILES |
| --- | --- | --- | --- | --- |
| 1580 nM | 0.99 | 2.51 nM | 39.8 nM | O=C1COc2c(CCNCCN(C(=O)CCNCCc3cc(F)cc(Cl)c3)C3CCCCCC3)ccc(O)c2N1 [Example 66, 3-(3-Chloro-5-fluorophenethylamino)-N-cycloheptyl-N-(2-(2-(5-hydroxy-3-oxo-3,4-dihydro-2H-benzo[b][1,4]oxazin-8-yl)ethylamino)ethyl)propanamide bis(trifluoroacetate)] |
| 1580 nM | 0.95 | 10 nM | 63.1 nM | CCCC[C@@H](C)N(CCNCCc1ccc(O)c2c1OCC(=O)N2)C(=O)CCNCCc1ccc(F)c(F)c1 [Example 52, (R)-3-(3,4-Difluorophenethylamino)-N-(hexan-2-yl)-N-(2-(2-(5-hydroxy-3-oxo-3,4-dihydro-2H-benzo[b][1,4]oxazin-8-yl)ethylamino)ethyl)propanamide bis(trifluoroacetate)] |
| 1000 nM | 1.01 | 2.51 nM | 63.1 nM | CCCC[C@@H](C)N(CCNCCc1ccc(O)c2c1OCC(=O)N2)C(=O)CCNCCc1ccc(Cl)s1 [Example 49, (R)-3-(2-(5-Chlorothiophen-2-yl)ethylamino)-N-(hexan-2-yl)-N-(2-(2-(5-hydroxy-3-oxo-3,4-dihydro-2H-benzo[b][1,4]oxazin-8-yl)ethylamino)ethyl)propanamide bis(trifluoroacetate)] |
| 2510 nM | 0.99 | 6.31 nM | 39.8 nM | CCCC[C@@H](C)N(CCNCCc1ccc(O)c2c1OCC(=O)N2)C(=O)CCNCCc1cccc(F)c1F [Example 53, (R)-3-(2,3-Difluorophenethylamino)-N-(hexan-2-yl)-N-(2-(2-(5-hydroxy-3-oxo-3,4-dihydro-2H-benzo[b][1,4]oxazin-8-yl)ethylamino)ethyl)propanamide bis(trifluoroacetate)] |
| 631 nM | 0.89 | 1.58 nM | 50.1 nM | CCCC[C@@H](C)N(CCNCCc1ccc(O)c2c1OCC(=O)N2)C(=O)CCNCCc1ccc(F)c(C)c1 [Example 47, (R)-3-(4-Fluoro-3-methylphenethylamino)-N-(hexan-2-yl)-N-(2-(2-(5-hydroxy-3-oxo-3,4-dihydro-2H-benzo[b][1,4]oxazin-8-yl)ethylamino)ethyl)propanamide bis(trifluoroacetate)] |
| 3980 nM | 0.97 | 3.98 nM | 1000 nM | O=C1COc2c(CCNCCN(C(=O)CCOCCc3ccccc3)C3CCCCC3)ccc(O)c2N1 [Example 70, N-Cyclohexyl-N-(2-(2-(5-hydroxy-3-oxo-3,4-dihydro-2H-benzo[b][1,4]oxazin-8-yl)ethylamino)ethyl)-3-phenethoxypropanamide trifluoroacetate] |
| 501 nM | 0.84 | 3.16 nM | 100 nM | C[C@H](C1CCCCC1)N(CCNCCc1ccc(O)c2c1OCC(=O)N2)C(=O)CCNCCc1ccccc1 [Example 61, (R)—N-(1-Cyclohexylethyl)-N-(2-(2-(5-hydroxy-3-oxo-3,4-dihydro-2H-benzo[b][1,4]oxazin-8-yl)ethylamino)ethyl)-3-(phenethylamino)propanamide bis(trifluoroacetate)] |
| 2000 nM | 0.91 | 7.94 nM | 39.8 nM | CC[C@@H](C)N(CCNCCc1ccc(O)c2c1OCC(=O)N2)C(=O)CCNCCc1ccc(Cl)c(Cl)c1 [Example 58, (R)—N-sec-Butyl-3-(3,4-dichlorophenethylamino)-N-(2-(2-(5-hydroxy-3-oxo-3,4-dihydro-2H-benzo[b][1,4]oxazin-8-yl)ethylamino)ethyl)propanamide dihydrochloride] |
| > 7940 nM | 0.96 | 251 nM | 398 nM | Cc1cc(CCNCCC(=O)N(CCNCCc2ccc(O)c3c2OCC(=O)N3)C2CCCCC2)ccc1F [Example 40, N-Cyclohexyl-3-(4-fluoro-3-methylphenethylamino)-N-(2-(2-(5-hydroxy-3-oxo-3,4-dihydro-2H-benzo[b][1,4]oxazin-8-yl)ethylamino)ethyl)propanamide bis(trifluoroacetate)] |
